Measured values published in BigSolDB 2.1.

O=c1cc(CBr)c2ccccc2[nH]1
solubility (mole fraction)
Conditions	278.15 K	283.15 K	288.15 K	293.15 K	298.15 K	303.15 K	308.15 K	313.15 K	318.15 K
in NMP	0.00539	0.00606	0.00705	0.0081	0.00928	0.0105	0.0119	0.0135	0.0151
in ethanol	0.00019	0.000211	0.000235	0.000261	0.000286	0.000316	0.000347	0.000378	0.000411
in isopropanol	0.000152	0.000175	0.000202	0.000229	0.00026	0.000293	0.000328	0.000365	0.000406
in n-propanol	0.000242	0.000269	0.000297	0.000325	0.000357	0.00039	0.00043	0.000466	0.000505
in water	4.78e-06	6.58e-06	9.12e-06	1.25e-05	1.67e-05	2.16e-05	2.88e-05	3.76e-05	4.76e-05
